What was measured:
[1] = test system: Colo-205 (colon cancer) cells; assay: Proliferation assay (CellTiter-Glo), Colo-205; assay type: cell-based; conditions: Homo sapiens, COLO 205, 72 h, Colo205 cells, 3 days
Protocol: (§1) A375 (melanoma), Colo-205 (colon cancer), Miapaca (pancreatic), HPAFII (pancreatic), sNF02.0 (neurofibromatosis type 1), sNF96.2 (neurofibromatosis type 1) and 8505 (Thyroid) cells were grown and maintained in RPMI-1640 medium containing 100 U/mL penicillin-streptomycin and 10% fetal bovine serum. Cells were in growth medium in 96-well opaque-walled clear bottom plates and incubated the in the CO2 incubator overnight before treatment. Cells were treated with compounds diluted in DMSO and a 10 point 3-fold serial dilutions were done. Plates were placed in 37° C., 5% CO2 for to incubate for 3 days. Before they were developed by adding 100 μL of CellTiter-Glo reagent (Promega) to the assay plate, plates were shaken briefly for 2 mins and allowed to incubate at rt for 10 mins. The bottom of the plates was pasted with white back seal and luminescence was recorded with Flexstation3 with setting of luminescence, integration time 500 ms.

[2] = test system: A375 (melanoma) cells; assay: Proliferation assay (CellTiter-Glo), A375; assay type: cell-based; conditions: Homo sapiens, A-375, 72 h, 3 days
Protocol: as §1

[3] = target: Activated ERK1 (Homo sapiens (Human), UniProt P27361); assay: Active ERK1 kinase assay (Mobility Shift Assay); assay type: biochemical
Sequence of Activated ERK1 (P27361 whole entry): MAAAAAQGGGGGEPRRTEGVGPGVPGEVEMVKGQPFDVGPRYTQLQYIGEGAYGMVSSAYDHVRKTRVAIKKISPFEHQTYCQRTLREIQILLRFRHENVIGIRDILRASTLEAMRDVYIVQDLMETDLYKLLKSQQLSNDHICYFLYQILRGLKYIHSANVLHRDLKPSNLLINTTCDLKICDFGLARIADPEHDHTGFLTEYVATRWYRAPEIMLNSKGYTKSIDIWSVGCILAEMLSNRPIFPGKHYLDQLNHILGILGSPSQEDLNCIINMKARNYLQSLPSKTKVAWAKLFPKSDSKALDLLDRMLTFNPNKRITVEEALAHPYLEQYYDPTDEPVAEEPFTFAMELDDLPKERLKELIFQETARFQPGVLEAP
Protocol: (§2) Activated ERK1 and ERK2 activity was determined in a Mobility Shift Assay (MSA) format as follows: Compound and kinase solution were prepared with assay buffer (20 mM HEPES, 0.01% Triton X-100, 2 mM DTT, pH7.5) and mixed and incubated in for 30 mins at rt. ERK1 & ERK2 were then activated by the addition of Fl-Substrate, ATP and metal solution and incubated for 1 h at rt. After 1 h, the reaction was terminated by the addition of […] of Termination Buffer (QuickScout Screening Assist MSA; Carna Biosciences) to the well. The reaction mixture was applied to LabChip™ system (PerkinElmer), and the product and substrate peptide peaks were separated, analyzed and quantitated. The kinase reaction is evaluated by the product ratio calculated from peak heights of product (P) and substrate (S) peptides (P/(P+S)).

[4] = target: Activated ERK2 (Homo sapiens (Human), UniProt P28482); assay: Active ERK2 kinase assay (Mobility Shift Assay); assay type: biochemical
Sequence of Activated ERK2 (P28482 whole entry): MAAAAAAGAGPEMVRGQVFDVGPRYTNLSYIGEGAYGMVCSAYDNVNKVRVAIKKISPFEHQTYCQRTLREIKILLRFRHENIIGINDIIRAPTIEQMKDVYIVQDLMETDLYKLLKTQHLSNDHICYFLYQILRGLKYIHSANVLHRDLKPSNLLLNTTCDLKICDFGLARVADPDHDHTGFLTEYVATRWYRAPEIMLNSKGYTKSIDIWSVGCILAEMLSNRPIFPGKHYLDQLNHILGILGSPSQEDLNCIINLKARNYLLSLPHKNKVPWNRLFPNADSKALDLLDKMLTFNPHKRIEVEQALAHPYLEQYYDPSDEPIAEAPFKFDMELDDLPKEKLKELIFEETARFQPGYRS
Protocol: as §2

[5] = test system: HPAFII (pancreatic) cells; assay: Proliferation assay (CellTiter-Glo), HPAFII; assay type: cell-based; conditions: Homo sapiens, HPAF-II, 72 h, 3 days
Protocol: as §1

[6] = test system: sNF02.2 (neurofibromatosis type 1) cells; assay: Proliferation assay (CellTiter-Glo), sNF02.2; assay type: cell-based; conditions: 72 h, sNF02.2 cells, 3 days
Protocol: as §1

[7] = test system: Mia Paca-2 (pancreatic) cells; assay: Proliferation assay (CellTiter-Glo), Mia Paca-2; assay type: cell-based; conditions: Homo sapiens, 72 h, Mia Paca-2 cells, 3 days
Protocol: as §1

[8] = test system: 8505C (Thyroid) cells; assay: Proliferation assay (CellTiter-Glo), 8505C; assay type: cell-based; conditions: Homo sapiens, 72 h, 8505C cells, 3 days
Protocol: as §1

[9] = test system: sNF96.2 (neurofibromatosis type 1) cells; assay: Proliferation assay (CellTiter-Glo), sNF96.2; assay type: cell-based; conditions: 72 h, sNF96.2 cells, 3 days
Protocol: as §1

IC50 [1] [nM]	IC50 [2] [nM]	IC50 [3] [nM]	IC50 [4] [nM]	IC50 [7] [nM]	Compound	IC50 [5] [nM]	IC50 [6] [nM]	IC50 [8] [nM]	IC50 [9] [nM]
≤ 500	≤ 500	≤ 50	≤ 50		CC(C)Oc1ccc(-c2n[nH]c3ccc(N4CC[C@]5(CCN(CC(=O)N6CC=C(c7ccc(-c8cn(C)nn8)cc7)CC6)C5)C4=O)cc23)cn1 [Example 15, (S)-2-(3-(6-isopropoxypyridin-3-yl)-1H-indazol-5-yl)-7-(2-(4-(4-(1-methyl-1H-1,2,3-triazol-4-yl)phenyl)-3,6-dihydropyridin-1 (2H)-yl)-2-oxoethyl)-2,7-diazaspiro[4.4]nonan-1-one]				
	≥ 1000	≥ 250	50 to 250		CC(C)Oc1ccc(-c2n[nH]c3ccc(N4CC[C@]5(CCN(CC(=O)N6CC=C(c7ccc(-c8ncccn8)cn7)CC6)C5)C4=O)cc23)cn1 [Example 25, (S)-2-(3-(6-Isopropoxypyridin-3-yl)-1H-indazol-5-yl)-7-(2-oxo-2-(5-(pyrimidin-2-yl)-3′,6′-dihydro-[2,4′-bipyridin]-1′(2′H)-yl)ethyl)-2,7-diazaspiro[4.4]nonan-1-one]				
≤ 500	≤ 500	≤ 50	≤ 50		Cn1cnc(-c2ccc(C3=CCN(C(=O)CN4CC[C@]5(CCN(c6ccc7[nH]nc(-c8ccnc(C(F)(F)F)c8)c7c6)C5=O)C4)CC3)cc2)n1 [Example 20, (S)-7-(2-(4-(4-(1-Methyl-1H-1,2,4-triazol-3-yl)phenyl)-3,6-dihydropyridin-1 (2H)-yl)-2-oxoethyl)-2-(3-(2-(trifluoromethyl)pyridin-4-yl)-1H-indazol-5-yl)-2,7-diazaspiro[4.4]nonan-1-one]				
	≤ 500	≤ 50	≤ 50		Cn1cnc(-c2ccc(C3=CCN(C(=O)CN4CC[C@]5(CCN(c6ccc7[nH]nc(-c8ccncc8F)c7c6)C5=O)C4)CC3)cc2)n1 [Example 31, (S)-2-(3-(3-Fluoropyridin-4-yl)-1H-indazol-5-yl)-7-(2-(4-(4-(1-methyl-1H-1,2,4-triazol-3-yl)phenyl)-3,6-dihydropyridin-1(2H)-yl)-2-oxoethyl)-2,7-diazaspiro[4.4]nonan-1-one]				
≤ 500	500 to 1000				Cn1nccc1Nc1nccc(-c2ccn([C@H](CO)c3ccc(Cl)c(F)c3)c(=O)c2)n1 [GDC-0994]				
	500 to 1000	≤ 50	≤ 50		CC(C)Oc1ccc(-c2n[nH]c3ccc(N4CC[C@]5(CCN(CC(=O)N6CC=C(c7ccc(-c8ncc(F)cn8)cc7)CC6)C5)C4=O)cc23)cn1 [Example 23, (S)-7-(2-(4-(4-(5-Fluoropyrimidin-2-yl)phenyl)-3,6-dihydropyridin-1(2H)-yl)-2-oxoethyl)-2-(3-(6-isopropoxypyridin-3-yl)-1H-indazol-5-yl)-2,7-diazaspiro[4.4]nonan-1-one]				
≤ 500	≤ 500	≤ 50	≤ 50		CCNc1nnc(-c2ccc(C3=CCN(C(=O)CN4CC[C@]5(CCN(c6ccc7[nH]nc(-c8ccc(OC(C)C)nc8)c7c6)C5=O)C4)CC3)cc2)o1 [Example 18, (S)-7-(2-(4-(4-(5-(Ethylamino)-1,3,4-oxadiazol-2-yl)phenyl)-3,6-dihydropyridin-1(2H)-yl)-2-oxoethyl)-2-(3-(6-isopropoxypyridin-3-yl)-1H-indazol-5-yl)-2,7-diazaspiro[4.4]nonan-1-one]				
≤ 500	500 to 1000	≤ 50	≤ 50		Cn1cnc(-c2ccc(C3=CCN(C(=O)CN4CC[C@]5(CCN(c6ccc7[nH]nc(C8CCNC(C(F)(F)F)C8)c7c6)C5=O)C4)CC3)cc2)n1 (stereo partly drawn) [Example 12, (5S)-7-(2-(4-(4-(1-Methyl-1H-1,2,4-triazol-3-yl)phenyl)-3,6-dihydropyridin-1(2H)-yl)-2-oxoethyl)-2-(3-(2-(trifluoromethyl)piperidin-4-yl)-1H-indazol-5-yl)-2,7-diazaspiro[4.4]nonan-1-one]				
	≥ 1000	≥ 250	≥ 250		CC(C)Oc1ccc(-c2n[nH]c3ccc(N4CC[C@]5(CCN(CC(=O)N6CCC(F)(c7ccc(-c8ncn(C)n8)cc7)CC6)C5)C4=O)cc23)cn1 [Example 27]				
≤ 500	≤ 500	≤ 50	≤ 50		Cc1nnc(-c2ccc(C3=CCN(C(=O)CN4CC[C@]5(CCN(c6ccc7[nH]nc(-c8ccc(OC(C)C)nc8)c7c6)C5=O)C4)CC3)cc2)o1 [Example 17, (S)-2-(3-(6-Isopropoxypyridin-3-yl)-1H-indazol-5-yl)-7-(2-(4-(4-(5-methyl-1,3,4-oxadiazol-2-yl)phenyl)-3,6-dihydropyridin-1(2H)-yl)-2-oxoethyl)-2,7-diazaspiro[4.4]nonan-1-one]				
	≤ 500		≤ 50	≤ 500	Cn1cnc(-c2ccc(C3=CCN(C(=O)CN4CC[C@]5(CCN(c6ccc7[nH]nc(-c8ccnc(C9(C(F)(F)F)CC9)c8)c7c6)C5=O)C4)CC3)cc2)n1 [Example 38, (S)-7-(2-(4-(4-(1-Methyl-1H-1,2,4-triazol-3-yl)phenyl)-3,6-dihydropyridin-1 (2H)-yl)-2-oxoethyl)-2-(3-(2-(1-(trifluoromethyl)cyclopropyl)pyridin-4-yl)-1H-indazol-5-yl)-2,7-diazaspiro[4.4]nonan-1-one]	≤ 500	≥ 1000	≥ 1000	500 to 1000
≤ 500	≤ 500	≤ 50	≤ 50		Cc1ccc(-c2n[nH]c3ccc(N4CCC5(CCN(CC(=O)N6CC=C(c7ccc(-c8ncn(C)n8)cc7)CC6)C5)C4=O)cc23)cn1 (centres unmarked) [Example 7, 7-(2-(4-(4-(1-Methyl-1H-1,2,4-triazol-3-yl)phenyl)-3,6-dihydropyridin-1(2H)-yl)-2-oxoethyl)-2-(3-(6-methylpyridin-3-yl)-1H-indazol-5-yl)-2,7-diazaspiro[4.4]nonan-1-one]				
	≤ 500	≤ 50	≤ 50		O=C(CN1CC[C@]2(CCN(c3ccc4[nH]nc(-c5ccnc(C(F)(F)F)c5)c4c3)C2=O)C1)N1CC=C(c2ccc(-c3ncc(F)cn3)cc2)CC1 [Example 28, (S)-7-(2-(4-(4-(5-Fluoropyrimidin-2-yl)phenyl)-3,6-dihydropyridin-1(2H)-yl)-2-oxoethyl)-2-(3-(2-(trifluoromethyl)pyridin-4-yl)-1H-indazol-5-yl)-2,7-diazaspiro[4.4]nonan-1-one]				
	≤ 500		≤ 50		Cn1cnc(-c2ccc(C3=CCN(C(=O)CN4CC[C@]5(CCN(c6ccc7[nH]nc(-c8ccnc(C(C)(F)F)c8)c7c6)C5=O)C4)CC3)cc2)n1 [Example 39, (S)-2-(3-(2-(1,1-difluoroethyl)pyridin-4-yl)-1H-indazol-5-yl)-7-(2-(4-(4-(1-methyl-1H-1,2,4-triazol-3-yl)phenyl)-3,6-dihydropyridin-1(2H)-yl)-2-oxoethyl)-2,7-diazaspiro[4.4]nonan-1-one]				
	≥ 1000	50 to 250	≤ 50		CC(C)Oc1ccc(-c2n[nH]c3ccc(N4CC[C@]5(CCN(CC(=O)N6CCC(C78CC(c9ncn(C)n9)(C7)C8)CC6)C5)C4=O)cc23)cn1 [Example 24, (S)-2-(3-(6-Isopropoxypyridin-3-yl)-1H-indazol-5-yl)-7-(2-(4-(3-(1-methyl-1H-1,2,4-triazol-3-yl)bicyclo[1.1.1]pentan-1-yl)piperidin-1-yl)-2-oxoethyl)-2,7-diazaspiro[4.4]nonan-1-one]				
	≤ 500	≤ 50	≤ 50		CC(C)Oc1cc(-c2n[nH]c3ccc(N4CC[C@]5(CCN(CC(=O)N6CC=C(c7ccc(-c8ncn(C)n8)cc7)CC6)C5)C4=O)cc23)ccn1 [Example 30, (S)-2-(3-(2-Isopropoxypyridin-4-yl)-1H-indazol-5-yl)-7-(2-(4-(4-(1-methyl-1H-1,2,4-triazol-3-yl)phenyl)-3,6-dihydropyridin-1(2H)-yl)-2-oxoethyl)-2,7-diazaspiro[4.4]nonan-1-one]				
	≤ 500	≤ 50	≤ 50		CC(C)Oc1ccc(-c2n[nH]c3ccc(N4CC[C@]5(CCN(CC(=O)N6CC=C(c7ccc(-c8ncccn8)cc7)CC6)C5)C4=O)cc23)cn1 [Example 22, (S)-2-(3-(6-Isopropoxypyridin-3-yl)-1H-indazol-5-yl)-7-(2-oxo-2-(4-(4-(pyrimidin-2-yl)phenyl)-3,6-dihydropyridin-1(2H)-yl)ethyl)-2,7-diazaspiro[4.4]nonan-1-one]				

— US10493060B2, “Spirocyclic compounds” (ZENO ROYALTIES & MILESTONES, LLC, priority 2015, dated 2019)
